Results from US11254663B2 (BRISTOL-MYERS SQUIBB COMPANY, priority 2019, dated 2022).

target: FXR (Homo sapiens (Human), UniProt Q96RI1); assay: transient human FXR/Gal4-luciferase reporter assay; type: cell-based; conditions: not given
Outline: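 Compound exposure ran overnight at 37 °C and activity was measured as luminescence with Steady-Glo reagent. The cells were a HEK293 line stably expressing firefly luciferase under five Gal4 response elements. They were transiently transfected, one night beforehand, with a plasmid encoding Gal4 DNA-binding domain fused to the human FXR ligand-binding domain.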

FXR, sequence (Q96RI1 262-486): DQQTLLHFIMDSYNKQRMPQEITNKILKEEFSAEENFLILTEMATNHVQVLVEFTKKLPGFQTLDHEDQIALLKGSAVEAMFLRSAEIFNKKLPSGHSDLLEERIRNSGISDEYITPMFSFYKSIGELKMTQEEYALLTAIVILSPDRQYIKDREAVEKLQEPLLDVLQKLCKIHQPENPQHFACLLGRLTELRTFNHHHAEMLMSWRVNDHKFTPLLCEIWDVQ

Compound | EC50
CCc1cnc(-c2ccnc(N(CC34CCC(c5noc(C(C)(C)C)n5)(CC3)CC4)C(=O)C34CC(F)(C3)C4)c2)nc1 [Example 543, N-((4-(5-(tert-butyl)-1,2,4-oxadiazol-3-yl)bicyclo[2.2.2]octan-1-yl)methyl)-N-(4-(5-ethylpyrimidin-2-yl)pyridin-2-yl)-3-fluorobicyclo[1.1.1]pentane-1-carboxamide] | 14 nM
CC(C)(C)c1nc(C23CCC(CN(C(=O)C45CC(F)(C4)C5)c4cc(-c5ccc(NS(C)(=O)=O)cc5)ccn4)(CC2)CC3)no1 [Example 534, N-((4-(5-(tert-butyl)-1,2,4-oxadiazol-3-yl)bicyclo[2.2.2]octan-1-yl)methyl)-3-fluoro-N-(4-(4-(methylsulfonamido)phenyl)pyridin-2-yl)bicyclo[1.1.1]pentane-1-carboxamide] | 77 nM
CCOc1ncc(-c2cccc(N(CC34CCC(c5noc(C(C)(C)C)n5)(CC3)CC4)C(=O)C3(C)COC3)c2)cn1 [Example 510, N-((4-(5-(tert-butyl)-1,2,4-oxadiazol-3-yl)bicyclo[2.2.2]octan-1-yl)methyl)-N-(3-(2-ethoxypyrimidin-5-yl)phenyl)-3-methyloxetane-3-carboxamide] | 974 nM

same assay, conditions: Gal4-hFXR fusion construct, HEK293 reporter cells; response relative to 8 μM GW-4064

Compound | EC50
COc1cc(-c2cccc(N(CC34CCC(c5ccnc(C)c5)(CC3)CC4)C(=O)C3CC(F)(F)C3)c2)ccn1 [Example 237, 3,3-Difluoro-N-(3-(2-methoxypyridin-4-yl)phenyl)-N-((4-(2-methylpyridin-4-yl)bicyclo[2.2.2]octan-1-yl)methyl)cyclobutane-1-carboxamide] | 541 nM
CCOc1ccc(-c2cccc(N(CC34CCC(c5noc(C(C)C)n5)(CC3)CC4)C(=O)C34CC(F)(C3)C4)c2)cc1 [Example 431, N-(4′-ethoxy-[1,1′-biphenyl]-3-yl)-3-fluoro-N-((4-(5-isopropyl-1,2,4-oxadiazol-3-yl)bicyclo[2.2.2]octan-1-yl)methyl)bicyclo[1.1.1]pentane-1-carboxamide] | 25 nM
CC(C)(O)c1ccc(-c2ccnc(N(CC34CCC(c5noc(C(C)(F)F)n5)(CC3)CC4)C(=O)OC(C)(C)C(F)(F)F)c2)cc1 [Example 609, 1,1,1-trifluoro-2-methylpropan-2-yl((4-(5-(1,1-difluoroethyl)-1,2,4-oxadiazol-3-yl)bicyclo[2.2.2]octan-1-yl)methyl)(4-(4-(2-hydroxypropan-2-yl)phenyl)pyridin-2-yl)carbamate] | 30 nM
CC(C)(C)NC(=O)N(CC12CCC(c3noc(C(F)(F)F)n3)(CC1)CC2)c1cccc(-c2ccc(C(C)(C)O)cc2)c1 [Example 611, 3-(tert-butyl)-1-(4′-(2-hydroxypropan-2-yl)-[1,1′-biphenyl]-3-yl)-1-((4-(5-(trifluoromethyl)-1,2,4-oxadiazol-3-yl)bicyclo[2.2.2]octan-1-yl)methyl) urea] | 41 nM
CCOc1ccc(-c2cccc(N(CC34CCC(c5noc(C6(C)CC6)n5)(CC3)CC4)C(=O)C34CC(F)(C3)C4)c2)cc1 [Example 399, N-(4′-ethoxy-[1,1′-biphenyl]-3-yl)-3-fluoro-N-((4-(5-(1-methylcyclopropyl)-1,2,4-oxadiazol-3-yl)bicyclo[2.2.2]octan-1-yl)methyl)bicyclo[1.1.1]pentane-1-carboxamide] | 58 nM
N#Cc1cccc(-c2cccc(N(CC34CCC(c5nc(C6CC6)no5)(CC3)CC4)C(=O)C34CC(F)(C3)C4)c2)c1 [Example 258, N-(3′-cyano-[1,1′-biphenyl]-3-yl)-N-((4-(3-cyclopropyl-1,2,4-oxadiazol-5-yl)bicyclo[2.2.2]octan-1-yl)methyl)-3-fluorobicyclo[1.1.1]pentane-1-carboxamide] | 479 nM
O=C(N(CC12CCC(c3nc(C4CC4)no3)(CC1)CC2)c1cccc(-c2cnc3cccnn23)c1)C12CC(F)(C1)C2 [Example 318, N-((4-(3-cyclopropyl-1,2,4-oxadiazol-5-yl)bicyclo[2.2.2]octan-1-yl)methyl)-3-fluoro-N-(3-(imidazo[1,2-b]pyridazin-3-yl)phenyl)bicyclo[1.1.1]pentane-1-carboxamide] | 172 nM
